Results published in patent publication US11992497B2 (priority 2021, dated 2024).
“Also recorded” adds a separate entry of the source. Like-named read-outs stand apart in the source and are kept apart here.

Key:
UGT1A4 = target: T1, UGT1A4 (Homo sapiens, UniProt P22310); experiment: UGT reaction phenotyping, recombinant Supersomes; format: in vitro ADME
T1 construct: purchased BD Biosciences
T1 sequence (P22310 29-534): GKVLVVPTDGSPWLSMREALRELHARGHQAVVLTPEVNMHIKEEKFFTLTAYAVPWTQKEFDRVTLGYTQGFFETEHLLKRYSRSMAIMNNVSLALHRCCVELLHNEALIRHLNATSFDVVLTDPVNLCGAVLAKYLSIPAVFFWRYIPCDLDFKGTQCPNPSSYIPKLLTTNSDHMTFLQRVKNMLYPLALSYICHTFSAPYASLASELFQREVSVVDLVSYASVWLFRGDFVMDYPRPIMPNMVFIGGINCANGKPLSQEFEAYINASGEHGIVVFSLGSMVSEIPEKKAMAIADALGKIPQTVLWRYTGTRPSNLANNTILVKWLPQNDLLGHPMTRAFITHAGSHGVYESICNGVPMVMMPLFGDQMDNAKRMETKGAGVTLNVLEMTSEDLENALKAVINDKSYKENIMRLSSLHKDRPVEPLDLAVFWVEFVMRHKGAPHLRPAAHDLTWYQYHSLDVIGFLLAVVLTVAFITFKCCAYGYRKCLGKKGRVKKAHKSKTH
From the text: Experimental Summary: UGT Reaction Phenotyping (7 Isoforms).

HCT116 = experiment: GI50 by MTS assay; format: cell-based; details: MTS assay, HCT116, 48 hours
Method: For MTS assay, the compounds have been tested at 8 concentrations on 4 colon cancer cell lines for 48 hours. The compounds, concentrations and colon cancer cell line panel tested are the following: • CBG: 0 μM, 1.25 μM, 2.5 μM, 5 μM, 10 μM, 20 μM, 40 μM, and 80 μM. • Compound 1: 0 μM, 1.25 μM, 2.5 μM, 5 μM, 10 μM, 20 μM, 40 μM, and 80 μM. • Compound 2: 0 μM, 1.25 μM, 2.5 μM, 5 μM, 10 μM, 20 μM, 40 μM, and 80 μM. • Colon cancer cell line panel: SW620, HCT15, HT29, HCTl16
Four colon cancer cell lines of SW620, HCT15, HT29, and HCT116 were included in the colon cancer cell line panel.
CBG, compound 1 and compound 2 were dissolved in DMSO at a concentration of 10 mM and stored at −20° C.
Evaluation of DM compounds treatment-induced growth inhibition was performed to determine the GI50 of four colon cancer cell lines with MTS assay or clonogenic assay. Each experiment was repeated in triplicate. In GraphPad Prism, data were log-transformed and fit with a nonlinear curve to calculate the GI50.
MTS assay. cells were plated at 96 well plates at a density of 1,000 cells per well. After 24 hours, cells were treated with DM compounds at increasing concentrations or DMSO vehicle and incubated for 48 hours. 20 μl of MTS reagent (Promega) was then added and incubated for 2 hours. The absorbance was measured with a microplate reader at 490 nm. Each experiment was repeated in triplicate. In GraphPad Prism, data were log-transformed and fit with a nonlinear curve to calculate the GI50.

[1] = PK and Tmax of CBD and Compound 3 after IP administration; format: in vivo; details: male C57BL/6 mice; for Cmax / AUC(0-t): mouse, in vivo; for AUC(0-t): read-out: AUC(0-t) (obs area)
From the text: The purpose of this study was to determine the pharmacokinetics and time of maximum plasma (Tmax) of the test articles (TA) CBD and Compound 3 following intraperitoneal (IP) administration to male C57BL/6 mice. This method of TA delivery, dose and mouse strain was to be used in a subsequent Pentylenetetrazol (PTZ) induced seizure model for the evaluation of the TA's for anti-epileptic activity.

PTZ-induced seizure = experiment: PTZ-induced epilepsy mouse model; format: in vivo; details: for Latency to Clonic Seizure Event compared to PTZ alone / Latency to First Seizure Event compared to PTZ alone / Latency to Tonic Seizure Event compared to PTZ alone / Percent of animals reaching Tonic-clonic Stage 6 compared to PTZ alone / Racine scores over 5 minute intervals for 30 minutes compared to PTZ alone / Survival Effects: mortality rate compared to the vehicle/PTZ group: PTZ 80 mg/kg, CBD 100 mg/kg 60 minutes prior, Compound 3 100 mg/kg 30 minutes prior to PTZ
From the text: Mouse models using GABAa receptor antagonist Pentylenetetrazol (PTZ) are well defined and used as a standard for the identification of potential anticonvulsants to treat generalized clonic seizures (Loscher et al., 1991 Epilepsy Res 8:171-189). The purpose of this study was to evaluate and compare CBD to test article Compound 3, on their therapeutic effects in a mouse model of PTZ-induced seizure. To match up test article plasma concentration time max (Tmax) with the PTZ induced seizures; test articles were administered at 60 minutes and 30 minutes prior to PTZ administration respectively. Vehicle used for treatment groups was 10% EtOH/10% Tween 80/80% Saline.
Mice were acclimated to the procedure room for at least 30 minutes.
Pentylenetetrazole (PTZ; Sigma Aldrich) was formulated in water to a concentration of 16 mg/mL. Injections of PTZ were made at a volume of 5 mL/kg to produce a final dose of 80 mg/kg. […] A 30- • minute maximum latency to seizure was imposed. • Clinical behavior was scored using the following adapted Racine scale: • Score 0, no seizures observed • Score 1, Behavioral arrest (freezing, fixed gaze, staring), vibrissae twitching, • mouth or facial clonus • Score 2, Pop or jump, straub tail, foot splay, head nodding • Score 3, Forelimb clonus, extended forelimbs, multiple pops or jerks • Score 4, Rearing and bilateral forelimb clonus, Running and running/bouncing • Score 5, All limb clonus, rearing and falling (stay fallen on rear side) • Score 6, Tonic hindlimb extensions, cardiac arrest
Behavior was scored by an observer blind to treatment. The highest score reached during every 5 minute period during the 30 minutes after PTZ was administered was recorded. Additionally, the percent tonic-clonic (number of animals progressing to the highest seizure score), and percent mortality was also calculated.

[2] = system: lipopolysaccharide (LPS)-induced inflammation; experiment: Rat LPS model, serum pro-inflammatory cytokines; format: in vivo, Sprague Dawley rats; details: oral, 4 days; 2 h after LPS
Method: This assay was employed to determine the efficacies of CBG, compound 1, and compound 2 against lipopolysaccharide (LPS)-induced inflammation in Sprague Dawley rats.
Eight- to 10-week-old male rats were treated with CBG, Compound 1, and Compound 2, or a positive control (cyclosporin A) for four days prior to treatment with LPS. Twenty-eight (28) Sprague Dawley male rats, 8-10 weeks old, were used for this study. Animals were randomized by weight into one of 7 treatment groups as shown in Table 10 below and treated for 4 days with either vehicle control (Groups 1 and 2), Cyclosporin A (Neoral) (Group 3), CBG at 30 mg/kg (Group 4), Compound 1 at 31.5 mg/kg (Group 5), Compound 2 at 32.7 mg/kg (Group 6) or CBG at 30 mg/kg (intraperitoneal/IP; Group 7). Groups 1-6 were dosed for 4 days by oral gavage; group 7 was dosed for 4 days by IP injection. After the 4th injection, Groups 2-7 received a single IP injection of LPS at 5 mg/kg to induce inflammation. Body weight was recorded every other day starting on the day of or day prior to the first day of treatment. A terminal body weight was recorded. General health and clinical signs were recorded once daily. Blood was collected to isolate immune cells at 2 hours after the LPS injection. […]
Serum samples (N=82) were processed and shipped to Inotiv Boulder for analysis. […] The samples were analyzed for cytokine levels using the RECYTMAG-65K Luminex™ kit. […]

Row | SMILES | Cmax ([1]; plasma, 100 mg/kg IP) | AUC(0-t) ([1]; plasma, 100 mg/kg IP) | Latency to Clonic Seizure Event compared to PTZ alone (PTZ-induced seizure) | Latency to First Seizure Event compared to PTZ alone (PTZ-induced seizure) | Latency to Tonic Seizure Event compared to PTZ alone (PTZ-induced seizure) | Percent of animals reaching Tonic-clonic Stage 6 compared to PTZ alone (PTZ-induced seizure) | Racine scores over 5 minute intervals for 30 minutes compared to PTZ alone (PTZ-induced seizure) | Survival Effects: mortality rate compared to the vehicle/PTZ group (PTZ-induced seizure) | also measured
1 | CN1CCN(CCCN2c3ccccc3Sc3ccc(C(F)(F)F)cc32)CC1 [Trifluoperazine, trifluoperazine] |  |  |  |  |  |  |  |  | microsomal CLint at 1 µM (UGT1A4; human, recombinant UGT1A4 Supersomes, pH 7.4, Test Conc. 1 μM, read-out: Recombinant UGT CLINT Clearance): 0.7 µL/min/mg; half-life at 1 µM (UGT1A4; human, recombinant UGT1A4 Supersomes, pH 7.4, Test Conc. 1 μM, read-out: Recombinant UGT Half Life T1/2): 16.4 h
2 | C[N+]1([C@@H]2O[C@H](C(=O)[O-])[C@@H](O)[C@H](O)[C@H]2O)CCN(CCCN2c3ccccc3Sc3ccc(C(F)(F)F)cc32)CC1 [Trifluoperazine Glucuronide] |  |  |  |  |  |  |  |  | average peak area ratio at 60 min/average peak area ratio at 0 min (printed in the half-life column) (UGT1A4; Test Conc. 1 μM): *6.38
3 | CCCCCc1cc(O)c(C/C=C(\C)CCC=C(C)C)c(OC)c1 [Cmpd1] |  |  |  |  |  |  |  |  | GI50 (HCT116; average of N1-N3, read-out: GI50 AVG): 10.3 µM; GI50 (HCT116; replicate N1, read-out: GI50 N1): 10.5 µM; GI50 (HCT116; replicate N2, read-out: GI50 N2): 9.96 µM; GI50 (HCT116; replicate N3, read-out: GI50 N3): 10.5 µM
4 | C=C(C)[C@@H]1CCC(C)=C[C@H]1c1c(O)cc(CCCCC)cc1O [CBD, cannabidiol, reference compound] | 2730 ng/mL | 6830 ng·h/mL | did not yield a significantly different latency | did not result in a difference in latency to first seizure | did not yield a significantly different latency | did not yield a significantly difference in proportion; also recorded: did not yield a significant difference in proportion | did not yield a significant change in clinical score | did not yield a significantly reduced mortality rate | Tmax (in words) ([1]; IP): two separate Tmax peaks
5 | C=C(C)[C@@H]1CCC(C)=C[C@H]1c1c(O)cc(CCCCC)cc1OC [Compound 3, (1′R,2′R)-6-methoxy-5′-methyl-4-pentyl-2′-(prop-1-en-2-yl)-1′,2′,3′,4′-tetrahydro-[1,1′-biphenyl]-2-ol] | 21800 ng/mL | 30200 ng·h/mL | did not yield a significantly different latency; also recorded: strong trend toward longer latency | trended towards a longer latency than PTZ alone, although the difference was not significant | significantly longer latency | significantly lower proportion | significant improvement in Racine scores | significantly reduced mortality rate | Cmax relative to CBD ([1]; IP): 8 fold; plasma PK Area Under the Curve (AUC) relative to CBD ([1]; IP): over 4 fold; TMax ([1]; plasma, 100 mg/kg IP): 0.5 h; reduction of IL-1B and IFNy relative to CBG (in words) [2]: equal to or better than CBG; overall anti-epileptic activity (in words) (PTZ-induced seizure; PTZ seizure model): clear anti-epileptic therapeutic activity
